# Where “and” joins values, the source holds several entries; their conditions need not be identical. Identical values can stand only once. Like-named read-outs stand apart in the source and are kept apart here.
# How the values were obtained:
# [1] = tested on: ADP-induced human platelet aggregation; settings: read-out: IC50 for the inhibition of ADP-induced human platelet aggregation; cited from earlier work
# [2] = molecular target: T1, P2Y12 receptor (Homo sapiens, UniProt Q9H244); test: VerifyNow P2Y12 assay, post-treatment platelet reactivity (PRU) in patients with sirolimus-eluting stents (Example 3); assay type: in vivo; design: The patient sample is usually citrated whole blood; endogenous in cells; host or cells: platelets in citrated whole blood of patients
# T1 sequence (Q9H244 whole entry): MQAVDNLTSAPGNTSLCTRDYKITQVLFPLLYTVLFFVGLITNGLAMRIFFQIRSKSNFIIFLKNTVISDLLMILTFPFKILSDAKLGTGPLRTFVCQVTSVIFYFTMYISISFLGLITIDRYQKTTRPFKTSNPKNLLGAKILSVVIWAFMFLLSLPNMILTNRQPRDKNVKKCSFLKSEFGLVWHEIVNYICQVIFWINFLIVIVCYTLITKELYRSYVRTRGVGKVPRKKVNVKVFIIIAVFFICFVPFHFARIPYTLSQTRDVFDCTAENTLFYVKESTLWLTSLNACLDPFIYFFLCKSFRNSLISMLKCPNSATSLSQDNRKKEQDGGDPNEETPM
# Procedure: Patients on clopidogrel therapy or who were clopidogrel naïve were eligible for inclusion. […] The assay contains […] and 22 nM prostaglandin E1 to reduce the activation contribution from ADP binding to P2Y1 receptors. […] With this assay, a higher PRU reflects greater ADP-mediated platelet reactivity. The mean coefficient of variation of test precision has been reported to be 3.2% in patients with coronary artery disease. Interventional strategy was at the discretion of the operator.
# [3] = tested on: patients undergoing PCI with DES
# Procedure: Interventional strategy was at the discretion of the operator. Either intra-procedural unfractionated heparin (with a goal-activated clotting time>250 s) or bivalirudin was used during the procedure. All patients received SES, and they received aspirin 325 mg on the day of the procedure regardless of previous aspirin use.
# “Technical success” was defined as a final diameter stenosis ≦30% and thrombolysis in myocardial infarction (TIMI) flow grade 3. Clinical endpoints measured were cardiovascular (CV) death, non-fatal myocardial infarction (MI), and stent thrombosis. “MI over follow-up” was defined as any typical rise and fall of cardiac biomarkers in the setting of clinical signs or symptoms consistent with cardiac ischaemia, following the American College of Cardiology definition (Cannon, et al., J. Am. Coll. Cardiol. (2001) 38:2114-2130). The Academic Research Consortium definitions were used for “stent thrombosis” (definite, probable, and possible) (Mauri, et al., N. Engl. J. Med. (2007) 356:1020-1029). “Subacute stent thrombosis” was defined as stent thrombosis occurring after discharge to 30 day follow-up, and late-stent thrombosis was defined as stent thrombosis occurring between 30 day and 6 month follow-ups.
# The computer-based analysis program SPSS (Statistical Package for the Social Sciences, 12.0 for PC, SPSS Inc., Chicago, Ill., USA) was used for statistical calculations. […] Comparison of continuous variables was performed using Student's t-test. The χ^2 test was used to detect differences in categorical variables, and a Fisher's exact test was used when any expected cell count was <5 for a 2 by 2 table. The Kolmogorov-Smirnov test was used to test for normality. A receiver-operating characteristic (ROC) curve analysis was used to determine the ability of the VERIFYNOW™ P2Y12 assay to distinguish between patients with and without post-discharge events after PCI. The optimal cut-off point was calculated by determining the post-treatment PRU that provided the greatest sum of sensitivity and specificity. Bootstrap validation was performed using R software. Survival curves were generated using the Kaplan-Meier method, and the difference between curves was assessed by log-rank test. A P-value<0.05 was considered significant.
# [4] = molecular target: T1, P2Y12 receptor; settings: for percentage of inhibition: on clopidogrel at time of procedure; for percentage inhibition: clopidogrel naive, loaded with 600 mg
# Excerpt: The VerifyNow™ System instrument is a turbidimetric-based optical detection system that measures platelet induced aggregation as an increase in light transmittance. The system includes an analyzer, disposable cartridge and controls. The cartridge contains reagents based on microparticle agglutination technology. The quality control system includes an electronic control, two levels of assayed “wet” controls (WQC), an in-cartridge humidity sensor, an in-packaging temperature indicator, and a test for concurrence of two assay channels. […] For use in the present methods the test cartridge of the system contains a lyophilized preparation comprising particles with passively bound GPIIb/IIIa receptor ligand, a composition of ADP and PGE1, and buffer. The patient sample is usually citrated whole blood, which is automatically dispensed from the blood collection tube into the cartridge by the analyzer, with no blood handling required by the user. The interaction is monitored by the infrared absorbency characteristics of the particles. As the particles interact with the platelets, the agglutination of the particles is measured through the optical system of the VerifyNow™ analyzer. The agglutination is detected as an increase in the transmission of infrared light through the sample. The reaction kinetics are analyzed and translated into “P2Y12 Response Units”, PRU.
# Whole blood was obtained from the side port of the arterial sheath prior to anticoagulant or anti-thrombin therapy and by phlebotomy 12 hours post-PCI.
# All patients received 325 mg uncoated aspirin the day of the procedure regardless of previous aspirin use. […] Either intra-procedural heparin (with a goal activated clotting time of >250 sec) or bivalirudin were administered during the procedure at operator discretion.
# Patients were judged to be insulin resistant if their Homeostasis Model Assessment index, calculated as: [fasting insulin (μU/mL)]*[fasting glucose (mg/dl)]/405, was >3.0 or if they had diabetes requiring medication.
# [5] = tested on: platelet aggregation; settings: Muller et al. 2003; cited from earlier work
# [6] = after discharge, 6 month follow-up, all patients
# [7] = clopidogrel for minimum 3 months, high reactivity (n = 121)
# [8] = clopidogrel for minimum 3 months, lower reactivity (n = 252)
# [9] = clopidogrel for minimum 3 months, overall group (n = 373)
# [10] = clopidogrel through 6 month follow-up, high reactivity (n = 108)
# [11] = clopidogrel through 6 month follow-up, lower reactivity (n = 258)
# [12] = clopidogrel through 6 month follow-up, overall group (n = 317)
# [13] = patients with high post-treatment reactivity
# [14] = patients without high post-treatment reactivity
compound,measurement,setting,value
"CCCCC[C@H](O)/C=C/[C@H]1[C@H](O)CC(=O)[C@@H]1CCCCCCC(=O)O [PGE1, prostaglandin E1]",IC50,[1],~0.04 µM
bivalirudin,post-treatment reactivity on clopidogrel by intra-procedural anticoagulant,[2]; patients receiving intra-procedural heparin or bivalirudin,184±84 PRU
COC(=O)[C@H](c1ccccc1Cl)N1CCc2sccc2C1 [clopidogrel],overall rate of late-stent thrombosis,[3]; 30 day to 6 month follow-up,0.8%
same,Non-fatal MI,[3]; [6],1.3%
same,"combined endpoint of CV death, non-fatal MI, or stent thrombosis",[3]; [6],2.6%
same,episodes of stent thrombosis,[3]; [6],1.6%
same,Non-fatal MI,[3]; [7],2 (1.7) n (%)
same,Stent thrombosis,[3]; [7],5 (4.1) n (%)
same,Non-fatal MI,[3]; [8],2 (0.8) n (%)
same,Stent thrombosis,[3]; [8],0 n (%)
same,Non-fatal MI,[3]; [9],4 (1.1) n (%)
same,Stent thrombosis,[3]; [9],5 (1.3) n (%)
same,Non-fatal MI,[3]; [10],2 (1.9) n (%)
same,Stent thrombosis,[3]; [10],5 (4.6) n (%)
same,Non-fatal MI,[3]; [11],2 (1.0) n (%)
same,Stent thrombosis,[3]; [11],0 n (%)
same,Non-fatal MI,[3]; [12],4 (1.3) n (%)
same,Stent thrombosis,[3]; [12],5 (1.6) n (%)
same,overall rate of subacute stent thrombosis,[3]; discharge to 30 day follow-up,0.8%
same,rate of CV mortality,[3]; [13],2.8%
same,"rate of all-cause death, non-fatal MI, or stent thrombosis",[3]; [13],6.5%
same,rate of any stent thrombosis,[3]; [13],4.6%
same,"rate of combined endpoint of CV death, non-fatal MI, or stent thrombosis",[3]; [13],6.5%
same,rate of definite or probable stent thrombosis,[3]; [13],2.8%
same,"survival rate free from the combined endpoint of CV death, non-fatal MI, or stent thrombosis",[3]; [13],91.4%
same,rate of CV mortality,[3]; [14],0%
same,"rate of all-cause death, non-fatal MI, or stent thrombosis",[3]; [14],1.4%
same,rate of any stent thrombosis,[3]; [14],0%
same,"rate of combined endpoint of CV death, non-fatal MI, or stent thrombosis",[3]; [14],1.0%
same,rate of definite or probable stent thrombosis,[3]; [14],0%
same,"survival rate free from the combined endpoint of CV death, non-fatal MI, or stent thrombosis",[3]; [14],99.0%
same,percentage of inhibition,"[4]; Patient No. 1, acute thrombosis 80 minutes after PCI",0%
same,percentage of inhibition,"[4]; Patient No. 2, sub-acute thrombosis 6 days following PCI",0%
same,percentage inhibition,"[4]; Patient No. 3, sub-acute thrombosis 34 days following PCI",0%
same,percentage inhibition,"[4]; Patient No. 4, sub-acute thrombosis 8 days following PCI",44%
same,share of patients undergoing PCI with clopidogrel-induced platelet inhibition <10%,"[4]; point-of-care assay, N = 280",one quarter
same,mean post-treatment reactivity,"[2]; all patients, n = 380",184±85 PRU
same,post-treatment reactivity,"[2]; clopidogrel-naive patients, 12 h after 600 mg loading dose",183±94 PRU
same,post-treatment reactivity of the patients who had stent thrombosis while taking antiplatelet therapy,[2]; individual patients,283 PRU and 292 PRU and 236 PRU and 244 PRU and 271 PRU
same,post-treatment reactivity,[2]; patients on previous clopidogrel therapy,186±73 PRU
same,platelet reactivity,[2]; patients with adverse events,242 PRU
same,platelet reactivity,[2]; patients without adverse events,186 PRU
same,patients receiving the drug who did not achieve the expected platelet aggregation inhibition,[5],at least 10%

# — patent US9506938B2, “Methods for measuring platelet reactivity of individuals treated with drug eluting stents” (ACCUMETRICS, INC., priority 2007, dated 2016)
